Legend:
[1] = system: bile duct ligated rats; test: Lipid peroxidation (thiobarbituric acid-reactive substances) assay in bile duct ligated rats with clofibrate treatment; assay type: in vivo, rat; conditions: BDL rats, clofibrate 50 mg/100 g body weight/day by gavage for 5 days after 7 days BDL, mean ± standard error
From the text: Bile-duct ligation animal model time study: […] Histopathologic examination: […] The sense primer was [NT] […] ID NO: 2) (position at 407).

[2] = system: bile duct ligated rats; assay type: in vivo, rat; conditions: serum; BDL rats, clofibrate 50 mg/100 g body weight/day by gavage for 5 days after 7 days BDL; mean ± standard error
[3] = system: liver fatty acid binding protein; test: L-FABP mRNA (RT-PCR) and protein (Western blot) level in liver of bile duct ligated rats with clofibrate treatment; assay type: in vivo, rat; conditions: BDL rats, five day treatment with clofibrate, n=5
From the text: FIG. 5. […] Bile-duct ligation animal model time study: […] Histopathologic examination: […] The sense primer was [NT] […] ID NO: 2) (position at 407).

[4] = In vitro antioxidative effect on free radicals released by the lipophilic free radical generator AMVN; assay type: biochemical
Protocol: FIG. 7 Effect of L-FABP on free radicals released by the lipophilic free radical generator AMVN. L-FABP had as much effect on inactivating lipophilic free radicals as 5 μM Vitamin E (mean±SD, n=6).
(§1) Our group has constructed and isolated recombinant L-FABP and used this protein in an in vitro model to study it's antioxidative properties.

[5] = In vitro antioxidative effect on free radicals released by the hydrophilic free radical generator AAPH; assay type: biochemical; conditions: mean±SD, n=6
Protocol: FIG. 6 Effect of L-FABP on free radicals released by the hydrophilic free radical generator AAPH. L-FABP had as much effect on inactivating hydrophilic free radicals as 3.5 mM Vitamin C, while lysozyme and albumin had negligible effect, 96±1% and 97±1%, respectively (mean±SD, n=6).
as §1

In the case of CCOC(=O)C(C)(C)Oc1ccc(Cl)cc1 [Clofibrate], the “TBARS (liver)” value ([1]; liver) is reported as 0.266 ± 0.053 nmol/mg protein, the “TBARS (serum)” value ([1]; serum) is reported as 0.212 ± 0.032 nmol/ml serum and the ATL [2] is reported as 30.70 ± 3.26 U/L. For the same molecule, the Ammonia [2] was 205.7 ± 16.6 µmol/L, the “Total Bilirubin” value [2] was 4.87 ± 0.90 mg/dL and the “liver fatty acid binding protein mRNA level, of the sham group” value ([3]; RT-PCR) was 74%. The “liver fatty acid binding protein level, of the sham group” value ([3]; Western blot) was 79%.

In the case of O=C1O[C@H]([C@@H](O)CO)C(O)=C1O [Vitamin C], the “antioxidant properties in the AMVN system” value [4] is reported as “no antioxidant properties”.

With Albumin the “effect on free radical inactivation (AAPH)” value [5] was 97±1%.

With Lysozyme the “effect on free radical inactivation (AAPH)” value [5] was 96±1%.
